The target of one experiment is human topoisomerase 2α (Homo sapiens, UniProt P11388). The experiment can be described thus: Supercoiled DNA relaxation assay for topoisomerase 2α. The format is biochemical. As to conditions: pBR322, 37°C, 30 min. The protocol:
After incubation, the reaction was terminated by addition of 2 µl of 10% SDS. The reaction mixtures were treated with 50 µg/ml proteinase K for 30 min at 37°C and then DNA was extracted with CIA (chloroform:isoamyl alcohol, 24∶1). Samples were resolved by electrophoresis on a 1% agarose gel. After staining the electrophoresed gel with ethidium bromide, DNA bands were visualized by UV light and photographed on Gel Doc XR.
(§1) Supercoiled DNA relaxation assay for (A) topoisomerase 1 (Top 1) and (B) topoisomerase 2 (Top 2). Supercoiled pBR322 plasmid DNA was incubated at 37°C for 30 min with Top 1 enzyme (A) or Top 2α (B) in the presence of various concentrations of indicated compounds. DNA samples were separated by electrophoresis on a 1% agarose gel, stained with ethidium bromide, and visualized by UV light. (−), supercoiled DNA alone; oc, open circular; sc, supercoiled. […] HeLa cells were pretreated with 10 µM of STK295900 for 30 min and then incubated with the indicated concentrations of camptothecin for 1 h. Treated cells were lysed and subjected to immunoblot analyses with antibody against γ-H2A.X. β-actin was used as a loading control. […] HeLa cells were pretreated with STK295900 at 10, 20, 30, or 50 µM or ICRF-193 at 10 µM for 30 min. […] Treated cells were then lysed and subjected to immunoblot analyses with antibody against γ-H2A.X. β-actin was used as a loading control.

In experiment [1] the test system is HeLa cells. The experiment can be described thus: Immunoblot of cell cycle and DNA damage checkpoint proteins. It counts as cell-based, human. Conditions: 24 h, STK295900 1 or 5 µM, camptothecin 10 µM, etoposide 10 µM. The protocol: (§2) Cells were lysed with cold RIPA buffer (50 mM Tris-HCl pH 8.0, 150 mM NaCl, 1% NP-40, 0.5% sodium deoxycholate, 0.1% SDS) containing freshly added protease inhibitor, phosphatase inhibitor (SIGMA), 1 mM DTT, and 1 mM Na3VO4 on ice for 1 h. Whole cell lysates were centrifuged at 15,000 rpm for 20 min and then the supernatant was transferred into a new tube. An appropriate amount of cell lysate was subjected to SDS-PAGE. Then the resolved proteins were transferred onto a PVDF membrane (Bio-Rad) for immunoblot analyses with specific antibodies. The proteins were detected using chemiluminescence solution (Thermo Scientific, Rockford, IL).
(A) Flow cytometric analysis for cell cycle distribution. HeLa cells were treated with the indicated concentrations of STK295900 for 24 h. Treated cells were then stained with propidium iodide (PI) and processed for cell cycle analysis. The bar graph represents the mean percentage of each cell cycle phase ± SD from three independent experiments. * = p<0.05 versus the respective G1, S, or G2/M phase of DMSO-treated cells. (B) Mitotic index of STK295900. HeLa cells were treated with the indicated concentrations of STK295900 for 24 h. Cells were then stained with Hoechst 33342 and mitotic cells were counted. […] (C) Cell cycle related proteins expression. […] Treated cells were lysed and subjected to immunoblot analyses with antibodies against cyclin A, cyclin B1, phospho-Histone H3 (S10), and Histone H3. β-actin was used as a loading control.
(A) G2/M transition regulated proteins expression. […] GAPDH was used as a loading control. (B) DNA damage-checkpoint related proteins. […] Images were analyzed on a fluorescence microscope.
For orientation: In western blotting, separated proteins are transferred to a membrane and probed.

Experiment [2] concerns the target T1, calf thymus topoisomerase 1 (Bos taurus, UniProt F1MN93).
T1 construct: purified calf thymus topoisomerase 1; purchased Takara Bio, Shiga, Japan; host or cells: calf thymus (tissue-purified)
T1 sequence (F1MN93 1-767): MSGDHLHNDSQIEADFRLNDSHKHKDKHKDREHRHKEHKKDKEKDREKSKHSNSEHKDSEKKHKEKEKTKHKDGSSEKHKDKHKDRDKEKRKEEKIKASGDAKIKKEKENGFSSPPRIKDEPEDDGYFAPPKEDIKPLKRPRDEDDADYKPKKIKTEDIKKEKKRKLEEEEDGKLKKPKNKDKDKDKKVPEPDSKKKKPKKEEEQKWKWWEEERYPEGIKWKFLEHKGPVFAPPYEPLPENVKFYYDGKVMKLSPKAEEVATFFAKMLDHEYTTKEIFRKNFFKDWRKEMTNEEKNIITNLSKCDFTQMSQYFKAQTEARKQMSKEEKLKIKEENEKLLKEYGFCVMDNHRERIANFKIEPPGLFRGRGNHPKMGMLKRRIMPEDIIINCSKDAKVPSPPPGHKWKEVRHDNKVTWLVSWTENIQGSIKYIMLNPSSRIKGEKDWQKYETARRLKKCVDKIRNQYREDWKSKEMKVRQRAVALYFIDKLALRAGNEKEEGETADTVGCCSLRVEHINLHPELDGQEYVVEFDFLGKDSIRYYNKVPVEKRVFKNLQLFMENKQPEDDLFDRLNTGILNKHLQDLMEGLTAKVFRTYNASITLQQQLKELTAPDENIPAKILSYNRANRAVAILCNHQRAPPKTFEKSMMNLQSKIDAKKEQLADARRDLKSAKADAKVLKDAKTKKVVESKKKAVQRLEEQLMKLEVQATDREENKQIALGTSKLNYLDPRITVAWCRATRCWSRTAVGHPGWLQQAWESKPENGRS
The experiment can be described thus: Supercoiled DNA relaxation assay for topoisomerase 1. It counts as biochemical.

The subject of a further experiment is MCF7 cells. Kind of experiment: Cell growth inhibition assay, MCF7. Conditions: Table 2 comparison, MCF7, growth up to 4 days. It counts as cell-based, human. The source says: (§3) Human epitheloid cervical carcinoma HeLa cells, human breast adenocarcinoma MCF7 and MDA-MB-231cells, human hepatocellular carcinoma HepG2 cells, human colon adenocarcinoma HT-29 cells, and human colorectal carcinoma HCT-116 cells were purchased from ATCC® and maintained in DMEM medium. Human prostate carcinoma PC-3 cells (purchased from ATCC®), human gastric carcinoma SNU-484 and SNU-601(obtained from Korean Cell Line Bank (KCLB)), human leukemia K-562 and HL-60 cells (purchased from ATCC®), immortalized human prostate epithelial 267B1cells, and immortalized human embryonic lung fibroblast MRC5CV1 cells were maintained in RPMI 1640 medium whereas immortalized retinal pigment epithelial hTERT RPE-1 cells (purchased from ATCC®) were maintained in DMEM/F12 medium. All cell lines were cultured in media supplemented with 10% fetal bovine serum, 100 U/ml penicillin, and […] streptomycin at 37°C in a 5% CO2 incubator.
(§4) Cells were seeded at the appropriate amount (1–2×10^3 cells) in triplicate in 96-well plates for 24 h and then treated with various concentrations of STK295900. Cell growth was determined by using EZ-CyTox cell viability assay kit (Daeil Lab. Service, Seoul, Korea). Ten microliters of WST solution were added to the treated cells at 24, 48, 72, and 96 h. Cells were further incubated at 37°C for 2 h and the absorbance was measured at 450 nm.

In experiment [3] the test system is cancer (HeLa, MCF7, HepG2, and HT-29) and non-cancerous cell lines (hTERT RPE-1, 267B1, and MRC5CV1). Kind of experiment: Cell growth inhibition assay, cancer and non-cancerous cell lines compared. The format is cell-based, human.
From the text: as §3, §4

For another experiment, the system named is HT-29 cells. The experiment can be described thus: Cell growth inhibition assay, HT-29. It counts as cell-based, human. As to conditions: Table 2 comparison, HT-29, growth up to 4 days.
From the text: as §3, §4

The subject of a further experiment is HepG2 cells. The experiment can be described thus: Cell growth inhibition assay, HepG2. The format is cell-based, human. Conditions: Table 2 comparison, HepG2, growth up to 4 days.
From the text: as §3, §4

Experiment [4] deals with HeLa cells. The experiment can be described thus: Antagonistic effect on Top poison-induced DNA damage (γ-H2A.X immunoblot). It counts as cell-based, human. Conditions: DMSO pretreated, 10 µM or 30 µM, 1 h. The protocol:
as §2, §1
The lysates were subjected to immunoblot analyses with γ-H2A.X antibody.

The test system of experiment [5] is HeLa cells. Kind of experiment: Cell growth inhibition assay, HeLa. The format is cell-based, human. As to conditions: Table 2 comparison, growth up to 4 days.
From the text: as §3, §4

Another experiment has as its system MRC5CV1 cells. The experiment can be described thus: Cell growth inhibition assay, MRC5CV1. It counts as cell-based, human. Conditions: Table 2 comparison, MRC5CV1, non-cancer, growth up to 4 days.
From the text: as §3, §4

The next experiment deals with hTERT RPE-1 cells. Kind of experiment: Cell growth inhibition assay, hTERT RPE-1. As to conditions: Table 2 comparison, hTERT RPE-1, non-cancer, growth up to 4 days. It counts as cell-based, human.
From the text: as §3, §4

The subject of the next experiment is 267B1 cells. Kind of experiment: Cell growth inhibition assay, 267B1. The format is cell-based, human. Conditions: Table 2 comparison, 267B1, non-cancer, growth up to 4 days.
From the text: as §3, §4

Chain of human topoisomerase 2α (P11388 whole entry): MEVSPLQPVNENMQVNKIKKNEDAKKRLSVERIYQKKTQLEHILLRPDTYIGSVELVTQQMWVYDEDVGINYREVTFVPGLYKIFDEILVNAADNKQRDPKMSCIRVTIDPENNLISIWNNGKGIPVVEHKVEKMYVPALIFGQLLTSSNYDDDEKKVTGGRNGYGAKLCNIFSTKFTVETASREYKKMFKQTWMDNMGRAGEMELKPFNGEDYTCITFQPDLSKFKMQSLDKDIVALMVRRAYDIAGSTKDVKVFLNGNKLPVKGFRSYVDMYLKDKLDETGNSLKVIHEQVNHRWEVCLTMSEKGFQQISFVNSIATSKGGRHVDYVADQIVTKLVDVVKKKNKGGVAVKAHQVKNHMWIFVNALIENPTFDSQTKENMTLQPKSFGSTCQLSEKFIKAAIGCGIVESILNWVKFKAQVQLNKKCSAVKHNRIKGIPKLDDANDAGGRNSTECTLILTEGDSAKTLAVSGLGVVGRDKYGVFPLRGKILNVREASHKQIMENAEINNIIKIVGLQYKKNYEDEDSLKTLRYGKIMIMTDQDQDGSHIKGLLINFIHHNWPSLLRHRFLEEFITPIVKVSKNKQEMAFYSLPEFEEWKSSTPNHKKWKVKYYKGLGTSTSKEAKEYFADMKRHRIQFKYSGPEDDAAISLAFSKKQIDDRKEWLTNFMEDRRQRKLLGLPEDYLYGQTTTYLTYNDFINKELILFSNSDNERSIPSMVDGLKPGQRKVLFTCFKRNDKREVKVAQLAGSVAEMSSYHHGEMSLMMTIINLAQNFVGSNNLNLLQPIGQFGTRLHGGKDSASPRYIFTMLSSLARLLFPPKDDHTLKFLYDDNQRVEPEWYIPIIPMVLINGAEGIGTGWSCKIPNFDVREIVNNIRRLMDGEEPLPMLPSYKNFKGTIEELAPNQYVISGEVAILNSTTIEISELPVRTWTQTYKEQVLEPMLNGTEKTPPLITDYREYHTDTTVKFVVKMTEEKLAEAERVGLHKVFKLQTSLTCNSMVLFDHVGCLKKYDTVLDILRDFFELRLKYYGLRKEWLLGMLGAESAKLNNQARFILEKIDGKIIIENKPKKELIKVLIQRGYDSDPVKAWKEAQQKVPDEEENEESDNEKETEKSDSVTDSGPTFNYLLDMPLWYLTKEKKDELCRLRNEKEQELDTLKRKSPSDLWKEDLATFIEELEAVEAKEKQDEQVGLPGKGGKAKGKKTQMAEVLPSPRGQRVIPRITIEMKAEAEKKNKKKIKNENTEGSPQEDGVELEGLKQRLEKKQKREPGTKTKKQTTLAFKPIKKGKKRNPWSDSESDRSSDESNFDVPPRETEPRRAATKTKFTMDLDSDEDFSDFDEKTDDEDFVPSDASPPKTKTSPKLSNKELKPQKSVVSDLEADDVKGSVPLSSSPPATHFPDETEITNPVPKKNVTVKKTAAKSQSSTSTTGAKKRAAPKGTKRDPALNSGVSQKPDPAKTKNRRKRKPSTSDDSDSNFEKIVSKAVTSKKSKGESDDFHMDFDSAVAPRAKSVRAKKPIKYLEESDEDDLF

On to ICRF-193, for which, on human topoisomerase 2α, the “Top 2α-mediated DNA relaxation” value is “accumulation of supercoiled DNA”.
For the molecule `COC(=O)Nc1nc2ccc(C(=O)c3cccs3)cc2[nH]1` [nocodazole], in the experiment on HeLa cells [1] (nocodazole 200 ng/ml), the “Histone H3 phosphorylation at S10” value is recorded as “detected only in cells treated with nocodazole”; the “Phosphorylation of Cdk1 at T161” value is “strongly enhanced”; the “Wee1 and Cdc25C levels” value was “undetectable levels of Wee1 but activation of Cdc25C”; the “cyclin A and cyclin B1 levels” value was “high level of cyclin B1 and undetectable level of cyclin A”. In the experiment with HeLa cells [1] (nocodazole 200 ng/ml), the “inhibitory phosphorylation of Cdk1 (T14 and Y15)” value is reported as “could not be detected”.
On to `CC[C@@]1(O)C(=O)OCc2c1cc1n(c2=O)Cc2cc3ccccc3nc2-1` [Camptothecin], for which the “Top 1-mediated DNA relaxation” value in experiment [2] is given as “inhibited DNA relaxation activity of Top 1 in a dose-dependent manner”. In addition, the IC50 in the experiment on MCF7 cells (Homo sapiens, MCF7, 96 h) is 30 nM; in experiment [3] (Homo sapiens, all cell lines tested (HeLa, MCF7, HepG2, HT-29, hTERT RPE-1, 267B1, MRC5CV1)), below 30 nM; in the experiment on HT-29 cells (Homo sapiens, HT-29, 96 h), 30 nM; with HepG2 cells (Homo sapiens, HepG2, 96 h), 20 nM; with HeLa cells [5] (Homo sapiens, 96 h), 20 nM; in the experiment with MRC5CV1 cells (Homo sapiens, 96 h), 20 nM. In addition, the IC50 is below 10 nM in the experiment with hTERT RPE-1 cells (Homo sapiens, hTERT-RPE1, 96 h) and below 10 nM in the experiment on 267B1 cells (Homo sapiens, 96 h). Also, the “γ-H2A.X induction in control cells (immunoblot)” value with HeLa cells [4] was “strongly induced γ-H2A.X”. The “p53 and p21 levels” value in the experiment on HeLa cells [1] was “significantly increased”. Also, the “phosphorylation-dependent activation of ATM (S1981), ATR (S428), Chk1 (S345), and Chk2 (T68)” value in the experiment with HeLa cells [1] was “activation of ATM, Chk1, and Chk2”. In addition, the “Phosphorylation of Cdk1 at T161” value in the experiment on HeLa cells [1] (nocodazole 200 ng/ml) is listed as “strongly enhanced”. Moreover, the “Wee1 and Cdc25C levels” value with HeLa cells [1] (nocodazole 200 ng/ml) was “reduction of Cdc25C”. In the experiment with HeLa cells [1] (nocodazole 200 ng/ml), the “cyclin A and cyclin B1 levels” value is “accumulations of cyclin A and cyclin B1”. Further, the “inhibitory phosphorylation of Cdk1 (T14 and Y15)” value in the experiment on HeLa cells [1] (nocodazole 200 ng/ml) is given as “abundance”.
Regarding `CCOc1ccc(-c2nc3ccc(-c4nc5ccc(N6CCN(C)CC6)cc5[nH]4)cc3[nH]2)cc1` [Hoechst 33342], the 50% inhibitory concentration (IC50) in the experiment on MCF7 cells turned out to be 200 nM; in the experiment on HT-29 cells, 650 nM; in the experiment on HepG2 cells it was 220 nM; with HeLa cells [5], 4560 nM; in the experiment on MRC5CV1 cells, 350 nM; in the experiment on hTERT RPE-1 cells it was 1010 nM. The same molecule came in with an IC50 with 267B1 cells of 840 nM. Moreover, in [3] (cancer (HeLa, MCF7, HepG2, HT-29) vs non-cancer (hTERT RPE-1, 267B1, MRC5CV1)), the “selectivity of toxicity, cancer versus non-cancer cells” value was “diverse and non-selective against cancer cells”.
Consider `COc1cc([C@@H]2c3cc4c(cc3[C@@H](O[C@@H]3O[C@@H]5CO[C@@H](C)O[C@H]5[C@H](O)[C@H]3O)[C@H]3COC(=O)[C@H]23)OCO4)cc(OC)c1O` [Etoposide], for which the IC50 worked out at 13200 nM with MCF7 cells (Homo sapiens, MCF7, 96 h); 10300 nM with HT-29 cells (Homo sapiens, HT-29, 96 h); 840 nM in the experiment with HepG2 cells (Homo sapiens, HepG2, 96 h); 300 nM with HeLa cells [5] (Homo sapiens, 96 h); 1290 nM with MRC5CV1 cells (Homo sapiens, 96 h); 450 nM with hTERT RPE-1 cells (Homo sapiens, hTERT-RPE1, 96 h). In addition, in the experiment with 267B1 cells (Homo sapiens, 96 h), 390 nM corresponded to half-maximal inhibition (IC50). In addition, the “Top 2α-mediated DNA relaxation” value on human topoisomerase 2α is “inhibited Top 2α activity by reducing the relaxed DNA and increasing nicked-open-circular DNA”.

One may read the IC50 as the concentration that gives 50% inhibition.

For the origin of these results see paper PMC3551932, “STK295900, a Dual Inhibitor of Topoisomerase 1 and 2, Induces G2 Arrest in the Absence of DNA Damage” (PLoS ONE, 2013).
